Data on 3 compounds can be found in patent publication US4783481A, “Rodenticides” (priority 1983, dated 1988).

A short description of data set [1]: Analysis of relative proportions of cis and trans isomers in carcasses of target and non-target species. Type of data set: in vivo, foxes, cats, hawks, owls and crows. The note with it: mixed isomers dosed. From the text:
We have now discovered that although there is little to choose between the isomers in terms of their rodenticidal effectiveness there is a significant difference in their persistence in the tissues of nonrodent non-target species which may be exposed to accidental ingestion of brodifacoum.
Species in which this selective depuration has been noted include scavanging and preditor mammals such as foxes and cats, and birds such as hawks, owls and crows. Thus if non-target species such as these consume the carcasses of rodents which have been killed by the use of the invention compositions they will be able to metabolise the residues of the active ingredient and not be at risk through bioaccumulation of a toxic dose by subsequently consuming further contaminated carcasses.

The nature of data set [2]: Selective depuration of isomer pairs from vole tissue, Example 4. It is filed as in vivo, meadow voles (Microtus penusylvanicus). Particulars: for Amount of isomer pair recovered from the tissue / concentration at 24 h / concentration at 48 h / concentration at 72 h / concentration at 96 h / concentration at 120 h: 10 ppm pellets, 0.54 mg/kg of A-D mixture consumed; for half-life / concentration at 24 h / concentration at 48 h / concentration at 72 h / concentration at 96 h / concentration at 120 h: po; for half-life: 0.54 mg/kg, calculated; for half-life / depuration: vole tissue; for depuration: in words; for concentration at 24 h / concentration at 48 h / concentration at 72 h / concentration at 96 h / concentration at 120 h: vole, tissue, read-out: Amount of isomer pair recovered from the tissue; for Ratio: isomers C and D to isomers A and B. Here is the method:
This Example illustrates the selective depuration of the active ingredient of the invention compositions by meadow voles (Microtus penusylvanicus).
Fasted wild voles were given pellets containing 10 ppm of mixture (approximately 1:1:1:1 by weight) of isomers A, B, C and D of brodifacoum until they had consumed 0.54 mg of active ingredient per kilogram of body weight. Voles were killed at 0, 1, 2, 3, 4, 5 and 14 days after dosing and the relative amounts of the A, B isomer pair and the C, D isomer pair remain in the vole tissue determined by chromatographic means.

For a further data set, the system named is cats. The experiment in a line: in vivo. Type of data set: in vivo. Particulars: diet simulating contaminated carcase. The text has this:
(§1) The compositions and methods of the invention may be successfully used to control rodents whilst minimising the hazard to non-target species as compared with the use of known compositions. […] This illustrates the improved safety of the invention compositions in the case of accidental ingestion of rodenticide bait by a non-target species.

The subject of data set [3] is pheasants (Phasianus colchicus). Type of data set: in vivo. Particulars: pheasants fed pelleted formulations; vs mixture of all four isomers (approximately 1:1:1:1).
Text: as §1

The nature of the next data set: in vivo. Type of data set: in vivo. Particulars: cat, in vivo, po; cats; similar diet with corresponding quantity of all four isomers.
Text: as §1

SMILES strings stand for the structures. Where only a bound is given, the exact number is not on record here.

With `O=c1oc2ccccc2c(O)c1[C@H]1C[C@@H](c2ccc(-c3ccc(Br)cc3)cc2)Cc2ccccc21` (relative stereo) [Isomers A and B, reference compound], the results for the “selective depuration / metabolism” value in data set [1] and in data set [1] (listed as cis isomer) were “not metabolised at a sufficient rate to avoid the lethal consequences” and “relatively metabolically more stable”, respectively. In addition, the “Amount of isomer pair recovered from the tissue” value in data set [2] (0 days after dosing) was 0.15 mg/kg. In addition, the half-life in data set [2] is more than 336 h. In addition, the depuration result in data set [2] is recorded as “retained in the tissue”. Also, the concentration at 24 h in data set [2] (1 day after dosing) is 147 ng/g. Moreover, the concentration at 48 h in data set [2] (2 days after dosing) is 114 ng/g. The concentration at 72 h in data set [2] (3 days after dosing) is 114 ng/g. For the same compound, the concentration at 96 h in data set [2] (4 days after dosing) stood at 123 ng/g. For the same compound, the concentration at 120 h in data set [2] (5 days after dosing) is 101 ng/g.
As to `O=c1oc2ccccc2c(O)c1[C@@H]1C[C@@H](c2ccc(-c3ccc(Br)cc3)cc2)Cc2ccccc21` (relative stereo) [Isomers C and D], in the data set with cats, the prothrombin time entry is given as “temporary increase in prothrombin time which returned to normal after a short period”. For the same compound, the mortality result in the data set with cats (in words) is “no mortality”. Moreover, the “selective depuration / metabolism” value in data set [1] (listed as isomers C and D of brodifacoum) is on record as “rapid depuration”. Besides, the “selective depuration / metabolism” value in data set [1] (listed as trans isomer) is “selective metabolism of most or all of the trans isomer”. Also, in data set [2] (0 days after dosing), the “Amount of isomer pair recovered from the tissue” value came to 0.122 mg/kg and the Ratio amounted to 0.818. Moreover, in data set [2] (1 day after dosing), the Ratio came to 0.354 and the concentration at 24 h is 52 ng/g. In data set [2] (2 days after dosing), the Ratio worked out at 0.211 and the concentration at 48 h is 24 ng/g. Also, in data set [2] (3 days after dosing), the Ratio was determined as 0.123 and the concentration at 72 h was 14 ng/g. Moreover, in data set [2] (4 days after dosing), the Ratio amounted to 0.089 and the concentration at 96 h is 11 ng/g. Also, in data set [2] (5 days after dosing), the Ratio turned out to be 0.05 and the concentration at 120 h turned out to be 5 ng/g. Besides, in data set [2], the half-life was approximately 24 h and the depuration entry is given as “rapid depuration”. Besides, the survival rate result in data set [3] is “much higher survival rate”.
With `O=c1oc2ccccc2c(O)c1C1CC(c2ccc(-c3ccc(Br)cc3)cc2)Cc2ccccc21` (stereo not drawn) [all four brodifacoum isomers, reference compound], in “in vivo”, the mortality came out at 100%. Also, the prothrombin time entry in the data set on cats was “increased prothrombin times which did not return to normal”.
